From PubChem BioAssay (NCI) come the findings set out here.

Among the test systems are SN12C renal; 786-0 renal; HOP-62 NSCLC; HOP-92 NSCLC; COLO 205 colon; SF-268 CNS; T-47D breast; NCI-H226 lung; RPMI-8226 leukemia; SR leukemia.
What all share (assay): DTP human tumour cell line panel, 48 h

SMILES strings stand for the structures.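 Results reflect a 48-hour exposure of cells in 96-well plates to compound at five concentrations. GI50 is the concentration that inhibits growth by half. TGI: total growth inhibition.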 Some results are limits rather than exact numbers.

Turning to `COc1cc(C(=O)O[C@H](C(N)=O)[C@]2(C)CO2)c2cccc(C)c2c1`, the 50% growth inhibitory concentration (GI50) in the experiment with SN12C renal is under 0.01 µM; in the experiment on 786-0 renal it was 2.31 µM; in the experiment on HOP-62 NSCLC it was 2.23 µM; in the experiment on HOP-92 NSCLC, 0.654 µM; in the experiment on T-47D breast, 1.11 µM. Also, the TGI with SN12C renal is 0.245 µM; in the experiment on 786-0 renal it was 5.75 µM; in the experiment on HOP-62 NSCLC, 5.35 µM; in the experiment with HOP-92 NSCLC, 2.28 µM; in the experiment with COLO 205 colon, 11.4 µM; with SF-268 CNS it was over 100 µM. The molecule further returned a total growth inhibition concentration (TGI) with T-47D breast of 8.1 µM.
For `c1ccc2c(c1)c1ccccc1c1ccccc21`, the GI50 in the experiment on SN12C renal, in the experiment with 786-0 renal, with NCI-H226 lung, in the experiment on HOP-62 NSCLC, with RPMI-8226 leukemia and in the experiment on HOP-92 NSCLC was over 100 µM each time. In addition, the GI50 in the experiment on COLO 205 colon, with SF-268 CNS and with T-47D breast was over 100 µM throughout. The TGI in the experiment on SN12C renal, in the experiment on 786-0 renal, in the experiment on NCI-H226 lung, in the experiment on HOP-62 NSCLC, with RPMI-8226 leukemia and with HOP-92 NSCLC was over 100 µM each time. Also, the TGI in the experiment with COLO 205 colon, with SF-268 CNS and with T-47D breast was over 100 µM throughout.
Take `Clc1nc(Cl)c2ncn(Cc3ccccc3Cn3cnc4c(Cl)nc(Cl)nc43)c2n1`: the GI50 in the experiment on SN12C renal was 2.31 µM; with 786-0 renal it was 4.47 µM; with NCI-H226 lung, 2.76 µM; in the experiment with HOP-62 NSCLC it was 9.11 µM; with SR leukemia, 2.17 µM; with HOP-92 NSCLC, 1.9 µM. Besides, the figures for the GI50 in the experiment with COLO 205 colon, in the experiment on SF-268 CNS and in the experiment with T-47D breast were 2.89 µM, 3.05 µM and 1.73 µM, respectively. The TGI in the experiment on SN12C renal is 7.24 µM; with 786-0 renal, 9.57 µM; with NCI-H226 lung it was 7.16 µM; in the experiment with HOP-62 NSCLC, 19.3 µM; in the experiment with SR leukemia, 5.15 µM; with HOP-92 NSCLC, 4.16 µM. In addition, the TGI with COLO 205 colon is over 26.3 µM; in the experiment on SF-268 CNS it was 12.3 µM; in the experiment with T-47D breast, 4.71 µM.
For the molecule `O=C(NNc1cnccn1)c1nc2cc(F)ccc2n2cccc12`, the GI50 in the experiment with SN12C renal is 0.925 µM; in the experiment with 786-0 renal it was 0.572 µM; in the experiment with NCI-H226 lung, 1.57 µM; in the experiment with HOP-62 NSCLC, 0.364 µM; in the experiment on RPMI-8226 leukemia, 0.518 µM; with SR leukemia, 0.247 µM. Further, the GI50 was 0.331 µM with COLO 205 colon, 0.551 µM with SF-268 CNS and 0.385 µM in the experiment with T-47D breast. The TGI with SN12C renal, in the experiment on 786-0 renal, in the experiment on NCI-H226 lung, in the experiment with HOP-62 NSCLC, in the experiment with RPMI-8226 leukemia and in the experiment on SR leukemia was over 100 µM each time. For the same molecule, the TGI with COLO 205 colon, in the experiment with SF-268 CNS and with T-47D breast was over 100 µM throughout.
Regarding `COc1cc2c3c(n(CCCN(C)CCO)c(=O)c2cc1OC)-c1cc2c(cc1C3=O)OCO2`, the GI50 was 2.75 µM in the experiment on SN12C renal; 2.92 µM in the experiment with 786-0 renal; 1.7 µM with NCI-H226 lung; 1.17 µM in the experiment with HOP-62 NSCLC; 1.45 µM in the experiment on RPMI-8226 leukemia; 2.82 µM in the experiment on HOP-92 NSCLC. Also, the GI50 was 12.6 µM in the experiment on COLO 205 colon, over 22.1 µM in the experiment on SF-268 CNS and 10.8 µM with T-47D breast. Moreover, the TGI in the experiment with SN12C renal is over 100 µM; in the experiment with 786-0 renal it was over 100 µM; in the experiment on NCI-H226 lung it was 26.5 µM; in the experiment on HOP-62 NSCLC, over 100 µM; in the experiment on RPMI-8226 leukemia it was 8.94 µM; in the experiment with HOP-92 NSCLC, 35.1 µM. Besides, the TGI with COLO 205 colon, in the experiment on SF-268 CNS and in the experiment on T-47D breast was over 100 µM throughout.
Regarding `N#CC(C#N)=C1CCCOc2c1ccc1ccccc21`, the GI50 with SN12C renal was over 100 µM; in the experiment with 786-0 renal, 88.2 µM; with HOP-62 NSCLC it was 79.5 µM; in the experiment on RPMI-8226 leukemia, 24.5 µM; with HOP-92 NSCLC, 15.8 µM; in the experiment on COLO 205 colon, over 100 µM. Also, the GI50 in the experiment on SF-268 CNS and with T-47D breast was over 100 µM throughout. Further, the TGI is over 100 µM with SN12C renal; over 100 µM in the experiment on 786-0 renal; over 100 µM with HOP-62 NSCLC; 65.1 µM in the experiment on RPMI-8226 leukemia; 71.7 µM with HOP-92 NSCLC; over 100 µM with COLO 205 colon. In addition, the TGI in the experiment with SF-268 CNS and in the experiment on T-47D breast was over 100 µM throughout.
Take `COc1cc(/C=C2\CCC/C(=C\c3ccc(OCC4CO4)c(OC)c3)C2=O)ccc1OCC1CO1` (centres undefined): the GI50 was 2.84 µM in the experiment on SN12C renal; 2.04 µM with 786-0 renal; 3.38 µM in the experiment on HOP-62 NSCLC; 2.29 µM in the experiment with SR leukemia; 3.3 µM with HOP-92 NSCLC; 2 µM in the experiment with COLO 205 colon. For the same molecule, the GI50 is 2.62 µM in the experiment on SF-268 CNS and 2.98 µM with T-47D breast. In addition, the TGI with SN12C renal was 8.71 µM; in the experiment with 786-0 renal, 3.85 µM; in the experiment on HOP-62 NSCLC, 9.59 µM; in the experiment with SR leukemia, over 100 µM; in the experiment with HOP-92 NSCLC, over 100 µM; in the experiment on COLO 205 colon, 3.54 µM. Besides, the TGI in the experiment on SF-268 CNS worked out at 8.41 µM; in the experiment on T-47D breast, 12.2 µM.
In the case of `Cn1cc(S(=O)(=O)N2CCC3=Cc4c(cnn4-c4ccc(F)cc4)C[C@]3(C(=O)c3cc(C(F)(F)F)ccn3)C2)cn1`, the GI50 in the experiment on SN12C renal was over 100 µM; with 786-0 renal, over 100 µM; in the experiment on NCI-H226 lung, 81.1 µM; in the experiment on HOP-62 NSCLC it was 43 µM; in the experiment on RPMI-8226 leukemia it was 93.7 µM; in the experiment on HOP-92 NSCLC it was 6.57 µM. Also, the GI50 with COLO 205 colon is over 100 µM; with SF-268 CNS, over 100 µM; in the experiment on T-47D breast it was 13.3 µM. For the same molecule, the TGI in the experiment on SN12C renal, with 786-0 renal, with NCI-H226 lung, in the experiment with HOP-62 NSCLC, with RPMI-8226 leukemia and in the experiment on HOP-92 NSCLC was over 100 µM in each case. Besides, the TGI in the experiment with COLO 205 colon, in the experiment with SF-268 CNS and with T-47D breast was over 100 µM in each case.
